Laboratory results taken from US8404685B2, “Dihydropyrazole derivatives as tyrosine kinase modulators for the treatment of tumors” (Merck Patent Gesellschaft Mit Beschrankter Haftung, priority 2008, dated 2013).

Assays:
Met kinase [1] = biological target: T1, Met kinase (Homo sapiens, UniProt P08581); assay: Met kinase inhibition, flashplate method (enzyme); assay type: biochemical; set-up: 6His (N); purchased Upstate 14-526; host or cells: Sf21 insect cells (S. frugiperda), baculovirus
Description: According to the manufacturer's data (Met, active, Upstate, catalogue No. 14-526), Met kinase is expressed for the purposes of protein production in insect cells (Sf21; S. frugiperda) and subsequent affinity-chromatographic purification as “N-terminal 6His-tagged” recombinant human protein in a baculovirus expression vector.
The test plates used are 96-well Flashplate® microtitre plates from Perkin Elmer (Cat. No. SMP200). The components of the kinase reaction described below are pipetted into the assay plate. The Met kinase and the substrate poly Ala-Glu-Lys-Tyr, (pAGLT, 6:2:5:1), are incubated for 3 hrs at room temperature with radioactively labelled ^33P-ATP in the presence and absence of test substances in a total volume of 100 μl. The reaction is terminated using 150 μl of a 60 mM EDTA solution. After incubation for a further 30 min at room temperature, the supernatants are filtered off with suction, and the wells are washed three times with 200 μl of 0.9% NaCl solution each time. The measurement of the bound radioactivity is carried out by means of a scintillation measuring instrument (Topcount NXT, Perkin-Elmer).
The full value used is the inhibitor-free kinase reaction. This should be approximately in the range 6000-9000 cpm. The pharmacological zero value used is staurosporin in a final concentration of 0.1 mM. The inhibitory values (IC50) are determined using the RS1_MTS program.
Kinase reaction conditions per well:
10 μl of substance to be tested in assay buffer with 10% of DMSO
10 μl of ATP (final concentration 1 μM cold, 0.35 μCi of ^33P-ATP)
50 μl of Met kinase/substrate mixture in assay buffer;
• (10 ng of enzyme/well, 50 ng of pAGLT/well) • Solutions used: • Assay buffer: • 50 mM HEPES • 3 mM magnesium chloride • 3 μM sodium orthovanadate • 3 mM manganese(II) chloride • 1 mM dithiothreitol (DTT) • pH=7.5 (to be set using sodium hydroxide) • Stop solution: • 60 mM Titriplex III (EDTA) • ^33P-ATP: Perkin-Elmer; • Met kinase: Upstate, Cat. No. 14-526, Stock 1 μg/10 μl; spec. activity 954 U/mg; • Poly-Ala-Glu-Lys-Tyr, 6:2:5:1: Sigma Cat. No. P1152 In-Vivo Tests

Met kinase [2] = biological target: T1, Met kinase; assay: Met kinase inhibition (cell); assay type: cell-based

T1 sequence (P08581 25-1390): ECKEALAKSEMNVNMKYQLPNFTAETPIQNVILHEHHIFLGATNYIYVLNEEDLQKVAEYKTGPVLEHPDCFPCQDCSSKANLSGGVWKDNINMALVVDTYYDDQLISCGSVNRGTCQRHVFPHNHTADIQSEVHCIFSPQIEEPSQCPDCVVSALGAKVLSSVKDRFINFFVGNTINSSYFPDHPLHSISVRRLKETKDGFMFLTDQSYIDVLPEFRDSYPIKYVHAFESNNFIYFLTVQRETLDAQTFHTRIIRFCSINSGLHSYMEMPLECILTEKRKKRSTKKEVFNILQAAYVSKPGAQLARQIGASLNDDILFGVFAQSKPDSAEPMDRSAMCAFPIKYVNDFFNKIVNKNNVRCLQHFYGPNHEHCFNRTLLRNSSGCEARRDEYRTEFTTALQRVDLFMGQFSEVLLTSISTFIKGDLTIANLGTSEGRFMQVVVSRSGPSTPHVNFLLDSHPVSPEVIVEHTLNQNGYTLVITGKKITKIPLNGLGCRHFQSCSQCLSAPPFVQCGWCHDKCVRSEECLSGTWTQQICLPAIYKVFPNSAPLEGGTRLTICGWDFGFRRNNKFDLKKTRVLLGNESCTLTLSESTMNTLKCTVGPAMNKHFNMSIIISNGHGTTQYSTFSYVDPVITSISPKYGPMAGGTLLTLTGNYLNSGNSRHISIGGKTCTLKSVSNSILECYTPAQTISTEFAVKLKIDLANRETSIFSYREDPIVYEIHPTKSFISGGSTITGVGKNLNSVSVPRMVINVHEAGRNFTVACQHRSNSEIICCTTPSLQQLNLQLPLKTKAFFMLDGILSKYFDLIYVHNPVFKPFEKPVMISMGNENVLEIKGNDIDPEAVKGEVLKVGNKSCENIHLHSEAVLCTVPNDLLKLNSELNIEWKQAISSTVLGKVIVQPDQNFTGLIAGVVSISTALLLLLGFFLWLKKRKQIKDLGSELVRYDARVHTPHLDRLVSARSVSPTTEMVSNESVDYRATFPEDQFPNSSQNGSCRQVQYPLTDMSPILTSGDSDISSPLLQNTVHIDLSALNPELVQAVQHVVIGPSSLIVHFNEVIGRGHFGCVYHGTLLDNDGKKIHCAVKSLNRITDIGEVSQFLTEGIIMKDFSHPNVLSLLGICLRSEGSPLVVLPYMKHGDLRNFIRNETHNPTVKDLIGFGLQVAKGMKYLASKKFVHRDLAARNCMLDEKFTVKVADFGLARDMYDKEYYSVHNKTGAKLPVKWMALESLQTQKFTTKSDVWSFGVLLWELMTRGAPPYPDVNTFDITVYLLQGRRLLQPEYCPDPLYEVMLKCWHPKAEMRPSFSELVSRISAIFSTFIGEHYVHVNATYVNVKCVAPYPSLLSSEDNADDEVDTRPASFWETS

Compound	IC50 (Met kinase [1]) [nM]	IC50 (Met kinase [2]) [nM]
O=C(Cc1cccc(-c2ncc(-c3cnn(CCN4CCCC4)c3)cn2)c1)N1CCC(c2cc(Cl)ccc2Cl)=N1 [Compound A1, 1-[3-(2,5-dichlorophenyl)-4,5-dihydropyrazol-1-yl]-2-(3-{5-[1-(2-pyrrolidin-1-ylethyl)-1H-pyrazol-4-yl]pyrimidin-2-yl}phenyl)ethanone]	1 to 100	1 to 100
N#Cc1cccc(C2=NN(C(=O)Cc3cccc(-c4ncc(Br)cn4)c3)CC2)c1 [Compound A7, 3-(1-{2-[3-(5-bromopyrimidin-2-yl)phenyl]acetyl}-4,5-dihydro-1H-pyrazol-3-yl)benzonitrile]	1 to 100	1 to 100
O=C(Cc1cccc(-c2ncc(OCCN3CCOCC3)cn2)c1)N1CCC(c2cc(Cl)ccc2Cl)=N1 [Compound A8, 1-[3-(2,5-dichlorophenyl)-4,5-dihydropyrazol-1-yl]-2-{3-[5-(2-morpholin-4-ylethoxy)pyrimidin-2-yl]phenyl}ethanone]	1 to 100	1 to 100
